In paper PMC11421016, “Biotransformation and Epithelial Toxicity of Prenylated Phenolics from Licorice Roots (Glycyrrhiza spp.) in 3D Apical-Out Mucus-Producing Human Enteroids” (Journal of Agricultural and Food Chemistry, 2024):
Read-outs that look alike come from different tables or passages of the source.

Experiments:
[1] = tested on: human ileal apical-in enteroids; test: Cytotoxicity by LDH leakage assay in apical-in enteroids; type: cell-based; conditions: 4 h, cutoff 25% vs negative control
Experimental: (§1) Cytotoxicity and effects on cell viability after exposure to glab, licoA, and glycy in apical-out and apical-in enteroids (6.25–500 μg mL^–1) and proliferating Caco-2 cells (3.13–100 μg mL^–1) were determined by LDH leakage (Section 2.6.1) and WST-1 assays (Section 2.6.2), respectively. For this, stock solutions of 50 mg mL^–1 of glab, licoA, and glycy in DMSO were used. […] An overview of the experimental conditions for the exposure experiments with glab, licoA, and glycy is shown in Table S2 (Supporting Information). In brief, apical-out and apical-in enteroids were grown for 7–10 days in OGM (∼200 enteroids per dome), after which the medium was changed to ODM (supplemented with 5 μM DAPT) to initiate enteroid differentiation. To generate apical-out enteroids, MG was removed from apical-in enteroids in OGM at day 7–10, as described in Section 2.3, and suspended in supplemented ODM. After 3 days in ODM, the effects on cytotoxicity and cell viability of glab, licoA, and glycy in apical-out and apical-in enteroids (passages between 3 and 17) were assessed after 4 and 24 h of incubation. For apical-out enteroids in a suspension, enteroids were pelleted by centrifugation (2 min, 200g, RT), after which the ODM was removed and 500 μL of the experimental agent was added. […] Caco-2 cells were grown for 48 h after seeding before experiments (passages 14–19) with proliferating cells and for 21 days after seeding (passages 14–33) with differentiated cells.[17] The medium (DMEM supplemented with FCS) was changed every 2 days. For exposure experiments, Caco-2 cells were incubated with glab, licoA, and glycy in DMEM without FCS, as FCS serves as an exogenous source of LDH.[22]
(§2) Cytotoxic effects of glab, licoA, and glycy were assessed by measuring leakage of intracellular lactate dehydrogenase (LDH) in the supernatant and analyzed using an LDH cytotoxicity detection kit (Roche Applied Science, Almere, The Netherlands), according to the manufacturer’s instructions. The LDH activity in the supernatant was expressed as the percentage of the maximum releasable LDH in enteroids or Caco-2 cells (enteroids or Caco-2 cells treated with 1% (v/v) Triton X-100) and calculated with eq 1. [drawing 1] 1 in which exp. value is the UV absorbance at 492 nm (Tecan Spark or Tecan Infinite 200 Pro, Tecan Group Ltd., Zürich, Switzerland), background control is the medium with corresponding concentration of glab, licoA, or glycy, and high control is the maximum releasable LDH in enteroids or Caco-2 cells. For enteroids, each well was used as its own positive control by taking the total releasable LDH of each well after incubation.

[2] = tested on: human ileal apical-out enteroids; test: Cytotoxicity by LDH leakage assay in apical-out enteroids; type: cell-based
Experimental: as §1, §2

[3] = tested on: human ileal apical-out enteroids; conditions: 12.5 μg mL^–1 (34–39 μM), 4 h exposure
Experimental: Effects on barrier integrity of apical-out enteroids after glab, licoA, and glycy exposure were evaluated with a dextran diffusion assay, adapted from Co et al.[14] […] Enteroids were allowed to settle by gravity (5 min) into a pellet, the FITC-dextran 4 kDa was aspirated, and enteroids were washed with DMEM/F12 (3 min, 250g, RT). Enteroids were suspended in fresh DMEM/F12, and they were imaged with an EVOS FL Auto 2 cell imaging system. Images were analyzed using ImageJ software (version 1.52).

[4] = Stability in the medium without enteroids; type: physicochemical; conditions: after 24 h of incubation
Experimental: (§3) Quantification of glab, licoA, glycy, and produced metabolites was based on UV absorbance at 280 nm (glab), 340–390 nm (licoA), and 320–370 nm (glycy). For this, a seven-point calibration (0.01–150 μg mL^–1) curve based on external standards of glab, licoA, and glycy (R^2 > 0.999) was used. UV peaks were integrated using the AVALON integration algorithm with the autocalc function (Xcalibur 4.1). Metabolites were quantified as glab, licoA, or glycy equivalents.

Caco-2 cells = test: Cytotoxicity by LDH leakage assay in Caco-2 cells; type: cell-based, human; conditions: proliferating and differentiated Caco-2 cells (differentiated: ref 17), cutoff 25%
Experimental: The human colon adenocarcinoma cell line (Caco-2) was obtained from the American Type Culture Collection (ATCC; Manassas, VA, USA). Caco-2 cells were cultured in DMEM, in a humidified atmosphere of 5% CO2 at 37 °C until 80–90% confluency was reached. Effects on the cytotoxicity and cell viability (Section 2.6) were assessed in proliferating and differentiated Caco-2 cells. The effects on differentiated Caco-2 cells were recently described in our publication.[17] Proliferating and differentiated Caco-2 cells were seeded into 96-well plates at a density of 15,000 cells per cm^2.
Cytotoxicity and effects on cell viability after exposure to glab, licoA, and glycy in apical-out and apical-in enteroids (6.25–500 μg mL^–1) and proliferating Caco-2 cells (3.13–100 μg mL^–1) were determined by LDH leakage (Section 2.6.1) and WST-1 assays (Section 2.6.2), respectively. For this, stock solutions of 50 mg mL^–1 of glab, licoA, and glycy in DMSO were used. […] After 3 days in ODM, the effects on cytotoxicity and cell viability of glab, licoA, and glycy in apical-out and apical-in enteroids (passages between 3 and 17) were assessed after 4 and 24 h of incubation. […]
as §2, with “[drawing 1]” left out, “For enteroids, each well was used as its own positive control by taking the total releasable LDH of each well after incubation.” left out

[5] = tested on: human apical-out ileal enteroids; test: Biotransformation in apical-out ileal enteroids (RP-UHPLC-PDA-MSn); type: in vitro ADME; conditions: for glucuronide concentration released at the apical side: glycy 265 μM at t = 0 h
Experimental: (§4) Biotransformation of glab, licoA, and glycy in apical-out and apical-in enteroids was evaluated after 0, 4, and 24 h of incubation. For this, apical-out enteroids were stimulated with 50 μg mL^–1 (154 μM) glab, or with 100 μg mL^–1 licoA (296 μM), or 100 μg mL^–1 glycy (272 μM), and apical-in enteroids were stimulated with 50 μg mL^–1 glab (154 μM), 50 μg mL^–1 licoA (148 μM), or 50 μg mL^–1 glycy (136 μM). […] For apical-out enteroids, parent compounds and their transformation products were assessed on the enteroids’ apical (facing the medium) and basolateral side (inside the enteroids) and intracellularly. In apical-in enteroids, parent compounds and metabolites were assessed on the basolateral side (facing the medium). For the apical release, apical-out enteroids were pelleted (250g, 3 min, 4 °C), and the supernatant was used for LC-MS analysis, after which the enteroids were washed with PBS. Enteroids in a suspension in fresh PBS were broken up by vigorously pipetting up and down approximately for 20 times, after which enteroids were pelleted and the supernatant was used to determine basolateral release by using LC-MS. Enteroids were washed with PBS, and the enteroids’ cells in fresh PBS were disrupted on ice with a digital sonifier (Branson Ultrasonics Corporation, Danbury, CT, USA) with the following settings: a 5 s pulse, a 10 s pause, an amplitude of 55%, and 12 cycles. Enteroids were pelleted, and the supernatant was used as a measure for intracellular release and measured with LC-MS.
(§5) Samples were separated on a Thermo Vanquish UHPLC system (Thermo Scientific, San Jose, CA, USA) equipped with a pump, a degasser, an autosampler, and a PDA detector, as described elsewhere.[15] Eluents used were (A) LC-MS-grade MQ + 0.1% FA (v/v) and (B) LC-MS-grade ACN + 0.1% FA (v/v). The elution program was started by running isocratically at 1% B for 1.09 min followed by a 1.09–26.16 min linear gradient to 70% B, a 26.16–27.25 min linear gradient to 100% B, and 27.25–32.70 min isocratically at 100% B. The eluent was adjusted to start conditions in 1.09 min followed by equilibration of 5.45 min.
(§6) Mass spectrometric data were acquired using an LTQ Velos Pro linear ion trap mass spectrometer (Thermo Scientific), equipped with a heated ESI probe coupled in-line to the Vanquish UHPLC system, as described elsewhere.[15] Data were processed using Xcalibur 4.1 (Thermo Scientific).
as §3

[6] = Cell viability by WST-1 assay in apical-out enteroids; type: cell-based, human; conditions: human, apical-out ileal enteroids; 500 μg mL^–1, 4 h exposure, negative control set at 100%; read-out: cell viability (WST-1)
Experimental: as §1
(§7) Effects on cell viability after stimulation by glab, licoA, and glycy were assessed by measuring cleavage of the tetrazolium salt WST-1 to formazan catalyzed by cellular mitochondrial dehydrogenases and analyzed using a WST-1 cell viability kit (PromoKine, Heidelberg, Germany), according to the manufacturer’s instructions. Cell viability was expressed as the percentage of the control cells (enteroids or Caco-2 cells grown in a medium) and was calculated with eq 2. [drawing 2] 2 in which exp. value is the UV absorbance at 450 nm (Tecan Spark or Tecan Infinite 200 Pro) and low control is the spontaneous cleavage of WST-1 to formazan by mitochondrial dehydrogenases in untreated enteroids or Caco-2 cells.

[7] = tested on: human ileal apical-out enteroids; test: as above; type: cell-based; conditions: 4 h exposure, range 6.25 up to 500 μg mL^–1
Experimental: as §1, §7

Gram-positive bacteria = tested on: Gram-positive bacteria; set-up: method as in PMID 36377761; conditions: against Gram-positive bacteria, cited from earlier work
[8] = tested on: human CYP enzymes (i.e., CYP3A4); set-up: method as in PMID 17220245, PMID 28774812, PMID 12019199, PMID 26100226; conditions: cited from earlier work
[9] = tested on: human apical-in ileal enteroids; test: Biotransformation in apical-in ileal enteroids (RP-UHPLC-PDA-MSn); type: in vitro ADME
Experimental: as §4, §5, §6, §3

glucuronide concentration released at the apical side ([5]; after 4 h)	glucuronide concentration released at the apical side ([5]; after 24 h)	Compound	highest nontoxic concentration (LDH) [1]	cytotoxicity (LDH) ([2]; 500 μg mL^–1, 4 h exposure, % of maximum releasable LDH)	effects on cytotoxicity up to the highest concentrations ([2]; 4 h exposure, up to 500 μg mL^–1, p > 0.05)	epithelial barrier (membrane) integrity [3]	recovery in the medium (without enteroids) [4]	highest nontoxic concentration (LDH) (Caco-2 cells)	% biotransformation to glucuronide compared to parent at t = 0 h ([5]; 24 h exposure, 100 μg mL^–1 (licoA, glycy), apical side)	sulfation (LC-MS analysis) ([5]; human ileal apical-out and apical-in enteroids)	biotransformation products formed ([5]; released on the apical side)	phase I biotransformation products ([5]; up to 24 h incubation)	viability at 4 h, 500 μg mL^–1 [6]	cell viability (WST-1), slight decrease, not statistically significant [7]	minimum inhibitory concentration (MIC) (Gram-positive bacteria)	minimum inhibitory concentration (MIC) (Gram-positive bacteria; equivalent of 12.5 μg mL^–1)	inhibition of human CYP enzymes (i.e., CYP3A4) [8]	% biotransformation to glucuronide compared to parent at t = 0 h ([9]; 24 h exposure, 50 μg mL^–1, basolateral side)	biotransformation products formed ([9]; identified at the basolateral side)	phase I metabolites ([9]; up to 24 h incubation)
–	–	C=CC(C)(C)c1cc(/C=C/C(=O)c2ccc(O)cc2)c(OC)cc1O [licochalcone A]	around 300 μM	−6 ± 2%	No significant effects on cytotoxicity	did not seem to disrupt	101 ± 3.2%	around 75 μM	comparably low	did not reveal sulfation	glucuronide metabolites	No phase I biotransformation products	77 ± 22%	approximately 80%	12.5 μg mL^–1	37 µM	inhibition	comparably low	transformed to their glucuronides	no phase I metabolites were identified
~3 µM	~16 µM	glycycoumarin-glucuronide [glycy-glucuronide]	–	–	–	–	–	–	–	–	–	–	–	–	–	–	–	–	–	–
